The text below walks through data of patent US11692227B2, “Method for screening for skin whitening agent by using SDF1 promoter region” (AJOU UNIVERSITY INDUSTRY-ACADEMIC COOPERATION FOUNDATION, priority 2018, dated 2023).

In this assay the test system is SDF1 promoter. Briefly: Screening of pigment regulators using SDF1 promoter (pGF1 reporter fibroblast cell line, Luciferase assay). As to conditions: fibroblasts infected with SDF1 promoter pGF1 vector virus; 1 ug TPA; 1 ug and 10 ug retinoic acid; 24 hours after treatment. It counts as cell-based. The text has this:
In order to express the SDF1 promoter gene, the SDF1 promoter gene was inserted into pGF1-vector to construct the SDF1 promoter GFP vector. In order to produce the virus into which the constructed vector was inserted, a virus production system of lentivirus was used. PVSV-G (SystemBiosciences, USA) encoding the required structural protein, the pGF1 vector into which the SDF1 promoter gene was inserted, and pGag-pol were simultaneously co-transfected into HEK-293TN cells by a liposome method. After 6 hours, the medium was replaced with a new medium, cultured for 48 hours, and the medium containing the virus was harvested, and the harvested virus was used for fibroblasts infection. As for the infected fibroblasts, only cells infected by Puromycin were selected for the experiment.
In order to confirm the expression of the prepared SDF1 promoter, Luciferase assay, an experiment that can confirm the level of GFP, was conducted to observe the expression level.
Cells were cultured in 12 well plates in an amount of 1×10^3, and after 24 hours, 1 ug of TPA, 10 ng and 100 ng of EGF, and 1 ug and 10 ug of retinoic acid were treated, respectively. 24 hours after treatment with the drug, the activity of GFP was measured through Luciferase assay.

`CCCCCCCCCCCCCC(=O)O[C@@H]1[C@@H](C)[C@@]2(O)[C@@H](C=C(CO)C[C@]3(O)C(=O)C(C)=C[C@@H]23)[C@@H]2C(C)(C)[C@]12OC(C)=O` [TPA]: the “SDF1 promoter activity (activity of GFP measured through Luciferase assay)” value is given as “decreased”.
